Measurements published in ChEMBL document CHEMBL3763120, “Phenyl Benzenesulfonylhydrazides Exhibit Selective Indoleamine 2,3-Dioxygenase Inhibition with Potent in Vivo Pharmacodynamic Activity and Antitumor Efficacy” (J Med Chem, 2016).

What was measured:
[1] = biological target: 5-hydroxytryptamine receptor 2B (Homo sapiens) (UniProt P41595); assay: Inhibition of 5-HT2B receptor (unknown origin) at 10 uM
[2] = biological target: Alpha-1A adrenergic receptor (Homo sapiens) (UniProt P35348); assay: Inhibition of Adrenergic alpha1A receptor (unknown origin) at 10 uM
[3] = biological target: L-type calcium channel, dihydropyridine binding site (Homo sapiens, UniProt O60840+Q01668+Q13698+Q13936); assay: Inhibition of L-type calcium channel dihydropyridine binding site (unknown origin) at 10 uM; assay type: protein assay
[4] = biological target: D(3) dopamine receptor (Homo sapiens) (UniProt P35462); assay: Inhibition of Dopamine D3 receptor (unknown origin) at 10 uM
[5] = species on record: Homo sapiens; assay: Inhibition of GABAA receptor central muscimol site (unknown origin) at 10 uM
[6] = biological target: 5-hydroxytryptamine receptor 3A (Homo sapiens) (UniProt P46098); assay: Inhibition of 5HT3 receptor (unknown origin) at 10 uM
[7] = biological target: Mu-type opioid receptor (Homo sapiens) (UniProt P35372); assay: Inhibition of Opiate mu receptor (unknown origin) at 10 uM
[8] = biological target: Acetylcholine receptor subunit alpha (Homo sapiens) (UniProt P02708); assay: Inhibition of Nicotinic acetylcholine alpha1 bungarotoxin binding site (unknown origin) at 10 uM
[9] = biological target: Muscarinic acetylcholine receptor M2 (Homo sapiens) (UniProt P08172); assay: Inhibition of Muscarinic M2 receptor (unknown origin) at 10 uM
[10] = biological target: Endothelin-1 receptor (Homo sapiens) (UniProt P25101); assay: Inhibition of ETA receptor (unknown origin) at 10 uM
[11] = biological target: Glucocorticoid receptor (Homo sapiens) (UniProt P04150); assay: Inhibition of Glucocorticoid receptor (unknown origin) at 10 uM
[12] = biological target: Estrogen receptor (Homo sapiens) (UniProt P03372); assay: Inhibition of ERalpha (unknown origin) at 10 uM
[13] = Half life in Sprague-Dawley rat plasma at 2 mg/kg, iv by LC-MS/MS analysis; assay type: ADME, organism-based; settings: Sprague-Dawley, plasma
[14] = biological target: Substance-P receptor (Homo sapiens) (UniProt P25103); assay: Inhibition of Tachykinin NK1 receptor (unknown origin) at 10 uM
[15] = biological target: 5-hydroxytryptamine receptor 1A (Homo sapiens) (UniProt P08908); assay: Inhibition of 5HT-1A (unknown origin) at 10 uM
[16] = biological target: Thyroid hormone receptor (Homo sapiens) (UniProt P10827+P10828); assay: Inhibition of Thyroid hormone receptor (unknown origin) at 10 uM; assay type: protein-complex assay
[17] = Oral bioavailability in Sprague-Dawley rat plasma at 10 mg/kg by LC-MS/MS analysis; assay type: ADME, organism-based
[18] = biological target: Sodium- and chloride-dependent GABA transporter 1 (Homo sapiens) (UniProt P30531); assay: Inhibition of GABA transporter (unknown origin) at 10 uM
[19] = species on record: Homo sapiens; assay: Inhibition of I2 imidazoline binding site (unknown origin) at 10 uM
[20] = species on record: Homo sapiens; assay: Inhibition of potassium channel (unknown origin) at 10 uM
[21] = species on record: Homo sapiens; assay: Inhibition of Purinergic P2Y receptor (unknown origin) at 10 uM
[22] = species on record: Homo sapiens; assay: Inhibition of MT1 receptor (unknown origin) at 10 uM
[23] = biological target: B1 bradykinin receptor (Homo sapiens) (UniProt P46663); assay: Inhibition of Bradykinin B1 receptor (unknown origin) at 10 uM
[24] = biological target: Indoleamine 2,3-dioxygenase 1 (Homo sapiens, UniProt P14902); assay: Inhibition of Indoleamine 2,3-dioxygenase in human HeLa cells in presence of L-tryptophan as substrate after 24 hrs in presence of L-tryptophan; assay type: cell-based
[25] = biological target: L-type calcium channel, benzothiazepine binding site (Homo sapiens, UniProt O60840+Q01668+Q13698+Q13936); assay: Inhibition of L-type calcium channel benzothiazepine binding site (unknown origin) at 10 uM; assay type: protein assay
[26] = biological target: Histamine H3 receptor (Homo sapiens) (UniProt Q9Y5N1); assay: Inhibition of Histamine H3 receptor (unknown origin) at 10 uM
[27] = biological target: Histamine H1 receptor (Homo sapiens) (UniProt P35367); assay: Inhibition of Histamine H1 receptor (unknown origin) at 10 uM
[28] = system: CT26; assay: Antitumor activity against mouse CT26 cells xenografted in Balb/c mouse assessed as median time to end point at 200 mg/kg, po bid for 22 days; assay type: functional
[29] = biological target: Alpha-1B adrenergic receptor (Homo sapiens) (UniProt P35368); assay: Inhibition of Adrenergic alpha1B receptor (unknown origin) at 10 uM
[30] = biological target: Delta-type opioid receptor (Homo sapiens) (UniProt P41143); assay: Inhibition of Opiate delta1 receptor (unknown origin) at 10 uM
[31] = biological target: Alpha-2A adrenergic receptor (Homo sapiens) (UniProt P08913); assay: Inhibition of Adrenergic alpha2A receptor (unknown origin) at 10 uM
[32] = biological target: Beta-2 adrenergic receptor (Homo sapiens) (UniProt P07550); assay: Inhibition of Adrenergic beta2 receptor (unknown origin) at 10 uM
[33] = biological target: Cannabinoid receptor 1 (Homo sapiens) (UniProt P21554); assay: Inhibition of CB1 receptor (unknown origin) at 10 uM
[34] = Plasma concentration in C57BL/6 mouse at 50 mg/kg, po after 2 hrs by LC-MS/MS analysis; assay type: ADME, organism-based
[35] = biological target: Kappa-type opioid receptor (Homo sapiens) (UniProt P41145); assay: Inhibition of Opiate kappa receptor (unknown origin) at 10 uM
[36] = species on record: Homo sapiens; assay: Inhibition of N-type calcium channel (unknown origin) at 10 uM
[37] = system: CT26; assay: Antitumor activity against mouse CT26 cells xenografted in Balb/c mouse assessed as median time to end point at 400 mg/kg, po bid for 22 days; assay type: functional
[38] = biological target: Adenosine receptor A1 (Homo sapiens) (UniProt P30542); assay: Inhibition of Adenosine A1 receptor (unknown origin) at 10 uM
[39] = Cmax in Sprague-Dawley rat plasma at 10 mg/kg, po by LC-MS/MS analysis; assay type: ADME, organism-based; set-up: dose 10 mg/kg, route oral
[40] = biological target: Muscarinic acetylcholine receptor M1 (Homo sapiens) (UniProt P11229); assay: Inhibition of Muscarinic M1 receptor (unknown origin) at 10 uM
[41] = biological target: Sodium-dependent serotonin transporter (Homo sapiens) (UniProt P31645); assay: Inhibition of Serotonin transporter (unknown origin) at 10 uM
[42] = biological target: Neuropeptide Y receptor type 2 (Homo sapiens) (UniProt P49146); assay: Inhibition of Neuropeptide Y2 receptor (unknown origin) at 10 uM
[43] = system: Mus musculus; assay: Decrease in ratio of kynurenine to tryptophan in C57BL/6 mouse at 50 mg/kg, po after 5 hrs by LC-MS/MS analysis; assay type: functional; settings: C57BL/6, po
[44] = system: Mus musculus; assay: Decrease in ratio of kynurenine to tryptophan in Balb/c mouse tumor xenografted with CT26 cells at 100 mg/kg bid for 18 days administered via oral gavage after 2 hrs by LC-MS/MS analysis; assay type: functional
[45] = AUC (0 to infinity) in Sprague-Dawley rat plasma at 2 mg/kg, iv by LC-MS/MS analysis; assay type: ADME, organism-based; set-up: dose 2 mg/kg, route intravenous, time infinity

Sequence of 5-hydroxytryptamine receptor 2B (Homo sapiens) (P41595 whole entry): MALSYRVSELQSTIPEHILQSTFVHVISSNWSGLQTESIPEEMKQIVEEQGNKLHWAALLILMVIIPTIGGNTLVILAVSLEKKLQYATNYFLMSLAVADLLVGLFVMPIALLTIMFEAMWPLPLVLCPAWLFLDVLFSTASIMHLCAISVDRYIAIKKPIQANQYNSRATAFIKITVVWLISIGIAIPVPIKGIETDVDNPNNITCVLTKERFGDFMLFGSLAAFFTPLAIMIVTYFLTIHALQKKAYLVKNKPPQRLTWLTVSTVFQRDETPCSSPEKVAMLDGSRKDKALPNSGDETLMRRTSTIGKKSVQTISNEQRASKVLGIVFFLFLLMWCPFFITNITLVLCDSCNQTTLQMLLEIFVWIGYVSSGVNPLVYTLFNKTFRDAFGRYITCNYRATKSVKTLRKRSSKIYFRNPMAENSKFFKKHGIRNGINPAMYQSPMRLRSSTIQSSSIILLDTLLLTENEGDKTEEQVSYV
Sequence of Delta-type opioid receptor (Homo sapiens) (P41143 whole entry): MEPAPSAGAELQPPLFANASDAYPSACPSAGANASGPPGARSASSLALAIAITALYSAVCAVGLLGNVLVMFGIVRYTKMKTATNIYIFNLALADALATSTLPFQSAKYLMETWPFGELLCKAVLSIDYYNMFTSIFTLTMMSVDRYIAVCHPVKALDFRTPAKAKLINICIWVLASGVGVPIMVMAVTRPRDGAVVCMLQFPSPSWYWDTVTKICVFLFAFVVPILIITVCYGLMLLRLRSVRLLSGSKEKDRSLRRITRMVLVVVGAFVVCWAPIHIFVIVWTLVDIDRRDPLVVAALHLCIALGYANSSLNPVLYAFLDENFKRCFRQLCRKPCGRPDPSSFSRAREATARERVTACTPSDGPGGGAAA
Sequence of Alpha-2A adrenergic receptor (Homo sapiens) (P08913 whole entry): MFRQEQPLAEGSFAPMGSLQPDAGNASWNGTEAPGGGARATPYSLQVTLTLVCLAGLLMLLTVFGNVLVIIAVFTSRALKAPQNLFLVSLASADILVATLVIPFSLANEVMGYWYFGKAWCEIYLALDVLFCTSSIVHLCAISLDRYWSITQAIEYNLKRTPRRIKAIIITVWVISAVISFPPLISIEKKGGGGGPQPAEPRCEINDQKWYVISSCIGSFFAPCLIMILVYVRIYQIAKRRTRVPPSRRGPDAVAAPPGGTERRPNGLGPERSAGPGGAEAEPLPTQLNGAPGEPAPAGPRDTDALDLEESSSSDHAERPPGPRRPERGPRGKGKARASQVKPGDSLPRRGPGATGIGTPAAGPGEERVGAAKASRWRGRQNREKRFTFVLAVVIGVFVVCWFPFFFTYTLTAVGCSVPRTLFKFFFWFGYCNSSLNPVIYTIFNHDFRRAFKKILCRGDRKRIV
Sequence of Neuropeptide Y receptor type 2 (Homo sapiens) (P49146 whole entry): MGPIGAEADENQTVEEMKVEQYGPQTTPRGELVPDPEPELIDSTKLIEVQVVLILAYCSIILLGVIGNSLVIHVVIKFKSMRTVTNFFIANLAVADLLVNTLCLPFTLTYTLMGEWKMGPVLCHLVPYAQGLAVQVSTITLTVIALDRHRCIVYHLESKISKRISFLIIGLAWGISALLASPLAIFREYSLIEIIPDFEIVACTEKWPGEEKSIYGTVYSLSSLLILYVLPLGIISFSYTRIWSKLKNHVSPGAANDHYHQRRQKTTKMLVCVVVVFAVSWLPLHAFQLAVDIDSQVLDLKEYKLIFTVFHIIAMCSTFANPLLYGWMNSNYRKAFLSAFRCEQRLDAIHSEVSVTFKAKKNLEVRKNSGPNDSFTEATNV
Sequence of Acetylcholine receptor subunit alpha (Homo sapiens) (P02708 whole entry): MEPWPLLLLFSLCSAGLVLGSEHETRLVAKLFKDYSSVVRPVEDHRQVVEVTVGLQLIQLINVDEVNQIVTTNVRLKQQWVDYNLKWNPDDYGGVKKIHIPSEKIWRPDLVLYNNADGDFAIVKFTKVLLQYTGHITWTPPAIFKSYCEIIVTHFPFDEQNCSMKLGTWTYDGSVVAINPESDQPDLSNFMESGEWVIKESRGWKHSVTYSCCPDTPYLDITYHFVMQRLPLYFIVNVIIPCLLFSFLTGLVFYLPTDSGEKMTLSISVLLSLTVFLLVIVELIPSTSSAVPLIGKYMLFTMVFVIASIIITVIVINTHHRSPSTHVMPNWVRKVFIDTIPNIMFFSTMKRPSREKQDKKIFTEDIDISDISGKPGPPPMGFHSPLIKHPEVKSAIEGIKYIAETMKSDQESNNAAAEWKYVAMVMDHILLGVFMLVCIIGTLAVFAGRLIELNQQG
Sequence of Muscarinic acetylcholine receptor M2 (Homo sapiens) (P08172 whole entry): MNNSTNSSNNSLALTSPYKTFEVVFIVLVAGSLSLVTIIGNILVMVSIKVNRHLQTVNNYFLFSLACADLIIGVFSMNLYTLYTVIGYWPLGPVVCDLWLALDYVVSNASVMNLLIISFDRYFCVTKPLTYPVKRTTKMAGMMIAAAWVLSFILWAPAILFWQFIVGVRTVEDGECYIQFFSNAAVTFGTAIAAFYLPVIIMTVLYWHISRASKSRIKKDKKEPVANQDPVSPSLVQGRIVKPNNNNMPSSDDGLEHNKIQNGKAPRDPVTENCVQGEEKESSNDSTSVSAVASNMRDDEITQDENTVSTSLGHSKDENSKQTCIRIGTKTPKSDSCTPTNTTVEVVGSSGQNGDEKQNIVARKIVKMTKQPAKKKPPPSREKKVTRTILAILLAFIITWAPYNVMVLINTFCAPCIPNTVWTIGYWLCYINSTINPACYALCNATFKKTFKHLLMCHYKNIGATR
Sequence of 5-hydroxytryptamine receptor 3A (Homo sapiens) (P46098 whole entry): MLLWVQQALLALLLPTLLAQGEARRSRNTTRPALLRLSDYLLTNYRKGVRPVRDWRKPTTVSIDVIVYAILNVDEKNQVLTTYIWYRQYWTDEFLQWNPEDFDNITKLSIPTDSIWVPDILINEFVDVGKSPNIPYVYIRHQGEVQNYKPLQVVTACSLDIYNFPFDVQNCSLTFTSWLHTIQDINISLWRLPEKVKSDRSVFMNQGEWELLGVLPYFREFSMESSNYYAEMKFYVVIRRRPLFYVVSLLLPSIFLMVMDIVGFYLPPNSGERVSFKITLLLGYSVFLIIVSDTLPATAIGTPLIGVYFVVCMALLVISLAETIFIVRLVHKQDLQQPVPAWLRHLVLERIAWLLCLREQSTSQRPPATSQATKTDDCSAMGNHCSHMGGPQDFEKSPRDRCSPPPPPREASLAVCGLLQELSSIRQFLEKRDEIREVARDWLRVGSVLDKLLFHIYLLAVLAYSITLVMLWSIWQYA
Sequence of Glucocorticoid receptor (Homo sapiens) (P04150 whole entry): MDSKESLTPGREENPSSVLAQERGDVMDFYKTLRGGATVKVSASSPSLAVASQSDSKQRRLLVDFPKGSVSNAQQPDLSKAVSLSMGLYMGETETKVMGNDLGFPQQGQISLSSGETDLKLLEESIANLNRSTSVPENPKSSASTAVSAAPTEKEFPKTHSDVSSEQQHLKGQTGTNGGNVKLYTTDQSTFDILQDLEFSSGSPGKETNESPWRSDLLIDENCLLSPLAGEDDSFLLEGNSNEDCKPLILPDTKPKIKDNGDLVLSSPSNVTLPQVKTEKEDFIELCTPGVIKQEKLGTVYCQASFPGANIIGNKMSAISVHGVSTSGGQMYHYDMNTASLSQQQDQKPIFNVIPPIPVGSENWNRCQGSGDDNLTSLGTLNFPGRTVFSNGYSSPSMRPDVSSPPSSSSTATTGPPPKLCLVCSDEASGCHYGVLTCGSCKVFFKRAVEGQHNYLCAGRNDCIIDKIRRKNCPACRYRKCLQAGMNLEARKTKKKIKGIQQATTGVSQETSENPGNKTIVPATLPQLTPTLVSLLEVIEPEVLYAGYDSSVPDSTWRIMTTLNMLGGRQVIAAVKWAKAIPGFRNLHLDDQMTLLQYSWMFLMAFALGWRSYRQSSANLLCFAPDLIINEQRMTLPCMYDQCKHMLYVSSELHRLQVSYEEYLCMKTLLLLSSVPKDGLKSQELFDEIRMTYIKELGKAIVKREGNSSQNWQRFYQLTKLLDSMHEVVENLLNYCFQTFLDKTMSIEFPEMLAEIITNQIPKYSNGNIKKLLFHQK
Sequence of Alpha-1B adrenergic receptor (Homo sapiens) (P35368 whole entry): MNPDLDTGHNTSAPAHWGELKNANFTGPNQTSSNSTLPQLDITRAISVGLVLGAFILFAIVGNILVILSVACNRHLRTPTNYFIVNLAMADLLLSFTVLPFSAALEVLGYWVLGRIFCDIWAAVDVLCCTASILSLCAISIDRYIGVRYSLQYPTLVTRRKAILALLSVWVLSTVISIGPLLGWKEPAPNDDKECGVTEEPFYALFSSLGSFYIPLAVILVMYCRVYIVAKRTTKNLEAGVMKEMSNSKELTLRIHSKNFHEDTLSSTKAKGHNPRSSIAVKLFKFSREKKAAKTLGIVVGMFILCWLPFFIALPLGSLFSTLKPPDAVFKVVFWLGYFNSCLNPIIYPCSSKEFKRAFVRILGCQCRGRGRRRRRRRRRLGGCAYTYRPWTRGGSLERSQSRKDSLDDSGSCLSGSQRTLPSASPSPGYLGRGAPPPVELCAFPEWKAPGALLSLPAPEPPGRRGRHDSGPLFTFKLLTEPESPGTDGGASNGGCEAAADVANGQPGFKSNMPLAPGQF
Sequence of Mu-type opioid receptor (Homo sapiens) (P35372 whole entry): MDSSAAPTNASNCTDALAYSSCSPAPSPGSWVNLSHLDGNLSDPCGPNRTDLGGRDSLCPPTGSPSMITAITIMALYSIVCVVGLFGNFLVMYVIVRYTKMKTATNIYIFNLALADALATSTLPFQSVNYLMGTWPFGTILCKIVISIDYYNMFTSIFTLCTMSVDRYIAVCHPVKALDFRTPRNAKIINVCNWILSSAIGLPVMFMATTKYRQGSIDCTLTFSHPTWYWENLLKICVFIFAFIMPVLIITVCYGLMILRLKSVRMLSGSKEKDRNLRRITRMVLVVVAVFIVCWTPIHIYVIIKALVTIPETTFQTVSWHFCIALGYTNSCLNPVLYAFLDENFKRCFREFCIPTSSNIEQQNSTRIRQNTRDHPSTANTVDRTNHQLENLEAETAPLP

O=C1Cc2cc(S(=O)(=O)NNc3ccc(Br)cc3)ccc2N1
2430 ng·h/mL: AUC(0-inf) [45]
6.4 days: Time [28]
59%: bioavailability [17]
< 50%: inhibition [1] | inhibition [2] | inhibition at 10 µM [3] | inhibition [4] | inhibition [5] | inhibition [6] | inhibition [7] | inhibition [8] | inhibition [9] | inhibition [10] | inhibition [11] | inhibition [12] | inhibition [14] | inhibition [15] | inhibition [16] | inhibition [18] | inhibition [19] | inhibition [20] | inhibition [21] | inhibition [22] | inhibition [23] | inhibition at 10 µM [25] | inhibition [26] | inhibition [27] | inhibition [29] | inhibition [30] | inhibition [31] | inhibition [32] | inhibition [33] | inhibition [35] | inhibition [36] | inhibition [38] | inhibition [40] | inhibition [41] | inhibition [42]
2.3 h: half-life [13]
58%: inhibition in vivo at 100 mg/kg [44]
7.4 days: Time [37]
2590 ng/mL: Cmax [39]
42%: inhibition in vivo at 50 mg/kg [43]
67.6 nM: EC50 [24]
4 µM: concentration at 2 h [34]
